From US20090036426A1 (AMPLA Pharmaceuticals Inc., priority 2007, published 2009)

How the values were obtained:
[1] = biological target: T1, CB1 receptor (Homo sapiens, UniProt P21554); assay: Functional activity versus the CB1 receptor (statement, no method)
[2] = biological target: T2, mouse CB1 (mouse brain membrane) (Mus musculus, UniProt P47746); assay: Competition ligand binding assay, mouse brain membrane preparations
T2 construct: or mouse brain membrane preparations in 96-well plate format; from tissue; host or cells: mouse brain membranes
T2 sequence (P47746 whole entry): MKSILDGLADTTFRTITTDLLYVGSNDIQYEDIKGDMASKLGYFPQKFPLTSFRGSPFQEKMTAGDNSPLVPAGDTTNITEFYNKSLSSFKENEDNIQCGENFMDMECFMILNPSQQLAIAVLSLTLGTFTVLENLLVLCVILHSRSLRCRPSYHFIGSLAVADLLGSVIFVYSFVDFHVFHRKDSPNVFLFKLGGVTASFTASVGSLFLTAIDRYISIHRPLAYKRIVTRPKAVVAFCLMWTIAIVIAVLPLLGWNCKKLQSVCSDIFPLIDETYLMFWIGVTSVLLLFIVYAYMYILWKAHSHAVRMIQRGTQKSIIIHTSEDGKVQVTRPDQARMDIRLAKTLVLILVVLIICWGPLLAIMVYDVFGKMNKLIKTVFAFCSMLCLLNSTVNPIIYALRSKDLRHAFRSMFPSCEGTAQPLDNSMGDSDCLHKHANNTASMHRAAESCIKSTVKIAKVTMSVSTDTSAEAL
Method: (§1) Competition ligand binding assays were performed with the non-selective cannabinoid receptor agonist ([^3H]CP 55,940) (0.75 nM) in the binding buffer containing 50 mM Tris-HCl, pH 7.4, 3 mM MgCl2, 1 mM EDTA, 0.2% BSA using CHO-k1 cell membranes stably expressing human CB1 receptors or mouse brain membrane preparations in 96-well plate format. The receptor membranes (10 μg/well) were pre-incubated with different concentrations of tested compounds in the binding buffer at room temperature for 30 min prior to addition of 0.75 nM [^3H]CP 55,940 in a final volume of 100 μl. The binding was carried out at room temperature for another 2 h. To determine the non-specific binding, experiments were also performed in the presence of 10 μM unlabeled CP 55,940. Binding was terminated by addition of cold binding buffer and filtrated on Whatman GF/B glass-fiber filters using a sampling manifold. The filters were washed 6 times with cold binding buffer and air-dried overnight. The radioactivity was quantitated on a TopCounter (PerkinElmer) after adding scintillation fluid. Specific binding was defined as the difference between the binding in the presence and absence of 10 μM unlabeled CP 55, 940.

[3] = biological target: T1, CB1 receptor; assay: Competition ligand binding assay, CHO-k1 cell membranes; design: expressed in transfected cells; host or cells: CHO-k1 cell membranes; settings: 0.75 nM radioligand, FIG. 6
Method: as §1

[4] = biological target: T3, Human Cannabinoid 1 (CB1) receptor (Homo sapiens, UniProt P21554); assay: Ca2+i response to 2-AG dose-response in CB1 cells with or without compound (DSIS flow cytometry); format: cell-based; settings: 2-AG with or without compound, FIG. 2
T3 construct: expressed in transfected cells; host or cells: CHO cells stably expressing the GqΔGi chimera; clonal CB1 line
T3 sequence (P21554 whole entry): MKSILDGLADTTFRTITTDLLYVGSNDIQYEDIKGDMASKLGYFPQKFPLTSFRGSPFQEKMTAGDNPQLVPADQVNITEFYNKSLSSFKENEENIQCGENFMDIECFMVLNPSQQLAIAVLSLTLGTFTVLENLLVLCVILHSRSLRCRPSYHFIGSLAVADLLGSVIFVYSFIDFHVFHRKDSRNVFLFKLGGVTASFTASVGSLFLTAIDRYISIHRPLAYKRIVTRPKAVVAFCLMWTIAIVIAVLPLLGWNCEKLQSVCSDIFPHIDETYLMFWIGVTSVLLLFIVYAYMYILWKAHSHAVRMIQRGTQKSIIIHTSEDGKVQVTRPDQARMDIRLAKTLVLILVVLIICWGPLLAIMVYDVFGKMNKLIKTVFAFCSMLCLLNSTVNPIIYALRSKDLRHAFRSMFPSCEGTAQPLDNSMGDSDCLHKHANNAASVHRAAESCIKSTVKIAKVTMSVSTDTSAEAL
Excerpt: cDNA for the G protein GqΔGi chimera was generated by PCR and inserted into the polylinker region of the pcDNA3/hygro+ vector (Invitrogen). Stable expression of GqΔGi chimera protein in CHO cell line was generated under hygromycin selection. Human Cannabinoid 1 (CB1) cDNA was inserted into the polylinker region of the pcDNA3.1/(+) vector (Invitrogen) and DNA was introduced into the GqΔGi/CHO cell line by Lipofectamine reagent (Invitrogen). Cell lines stably expressing the CB receptor with GqΔGi chimera protein were generated by double selection with hygromycin and G418 (Coward, P., et al. 1999. Chimeric G proteins allow a high-throughput signaling assay of Gi-coupled receptors. Anal Biochem. 270:242-8).
CB1 Cells were plated 24-48 hours in advance, and were harvested with trypsin at ˜80% confluency. Cells were then centrifuged and resuspended two times in Hybridoma Media, the final time at a concentration of 1×10^6 cells/mL. Two μM of Indo-1 were added and cells were incubated for 1 hour on a rotator at room temperature. […]
The probe-loaded CB1 and Control cell mixture was placed in the Cell Suspension System on the DSIS where they were continuously rocked to keep them in a suspended state. […] The DSIS software, NVS Sampler, recorded a timing file and the CyAn software, Summit, recorded a data file. […]

[5] = biological target: T4, CB2 receptor (Homo sapiens, UniProt P34972); assay: Ca2+i response to 2-AG dose-response in CB2 receptor bearing cells with or without compound; format: cell-based; settings: 2-AG with or without compound, FIG. 2
T4 construct: host or cells: CB2 receptor bearing cells (host line not described)
T4 sequence (P34972 whole entry): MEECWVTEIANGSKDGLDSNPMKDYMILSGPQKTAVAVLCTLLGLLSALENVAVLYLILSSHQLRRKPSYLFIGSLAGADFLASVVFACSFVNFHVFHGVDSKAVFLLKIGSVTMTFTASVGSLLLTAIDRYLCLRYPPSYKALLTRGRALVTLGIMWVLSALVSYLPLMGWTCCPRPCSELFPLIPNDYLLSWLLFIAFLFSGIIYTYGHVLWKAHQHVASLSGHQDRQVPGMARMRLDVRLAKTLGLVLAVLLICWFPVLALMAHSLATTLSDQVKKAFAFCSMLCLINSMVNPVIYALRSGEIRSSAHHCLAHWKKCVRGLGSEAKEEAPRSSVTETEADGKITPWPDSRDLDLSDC

[6] = biological target: T1, CB1 receptor; assay: [35S]GTPγS binding assay on CHO-k1 cell membranes; format: biochemical; design: expressed in transfected cells; host or cells: CHO-k1 cell membranes
Method: [^35S]GTPγS binding assays were performed with CHO-k1 cell membranes stably expressing human CB1 receptors in 96-well ScintiPlate (PerkinElmer). The membranes (12.5 μg/well) were preincubated with compound 7 in the binding buffer (50 mM Tris-HCl, pH 7.4, 100 mM NaCl, 3 mM MgCl2, 0.2 mM EDTA, 0.2% BSA and 10 μM GDP) at 30° C. for 30 min, then added various concentrations of agonists (WIN 55212-2 or CP 55,940) and [^35S]GTPγS (0.2 nM) in a final volume of 200 μl. Reactions were carried out at 30° C. for 60 min, followed by centrifugation of plate at […] for 15 min. After removing supernatant, the radioactivity was quantitated on a TopCounter.

[7] = biological target: T1, CB1 receptor; assay: Dissociation kinetics assay with [3H]CP 55,940 on CHO-k1 cell membranes; format: binding; design: expressed in transfected cells; host or cells: CHO-k1 cell membranes; settings: 0.75 nM [3H]CP 55,940, room temperature, FIG. 3
Method: Dissociation kinetics assays were performed with the non-selective cannabinoid receptor agonist ([^3H]CP 55,940) (0.75 nM) in the binding buffer containing 50 mM Tris-HCl, pH 7.4, 3 mM MgCl2, 1 mM EDTA, 0.2% BSA using CHO-k1 cell membranes stably expressing human CB1 receptors in 96-well plate format. The CB1 receptor membranes (10 μg/well) were incubated with 0.75 nM [^3H]CP 55,940 in 100 μl binding buffer at room temperature for 2 h. Dissociation was initiated with addition of 100 μl unlabeled CP 55,940 (10 μM) in binding buffer in the absence or presence of different concentrations of compounds (compound 7). Dissociation was carried out at room temperature for indicated time. To determine the non-specific binding, experiments were also performed in the presence of 10 μM unlabeled CP 55,940. Binding was terminated by addition of cold binding buffer and filtrated on Whatman GF/B glass-fiber filters using a sampling manifold. The filters were washed 6 times with cold binding buffer and air-dried overnight. The radioactivity was quantitated on a TopCounter (PerkinElmer) after adding scintillation fluid. Specific binding was defined as the difference between the binding in the presence and absence of 10 μM unlabeled CP 55,940.

[8] = Acute administration: wet mash and food intake and 24 h body weight in lean mice (Example 3); format: in vivo, male C57BL/6J mice; settings: dosed orally at 10 mg/kg, one-way ANOVA
[9] = Body weight of diet-induced obese mice, repeated oral administration (Example 2); format: in vivo, male C57BL/6J mice; settings: for reduction of body weight: dosed for 28 days, DIO mice, FIG. 8
Method: Sixty-five C57BL/6J mice (7-8 weeks of age) were ordered from Charles River, Margate, Kent. Mice were group housed in polypropylene cages with free access to a high fat diet (D12451 45% of Kcal derived from fat; Research Diets, New Jersey, USA) and tap water at all times. Animals were maintained at 21±4° C. and 55±20% humidity on a normal phase 12 h light-dark cycle (lights on 04:30 h)
Body weight and food and water intake were recorded daily. Following drug administration the animals were examined and any overt behaviour was recorded. For all dosing, the morning session was timed such that approximately half the mice were dosed at the time of lights out (09:30).
The test compounds were dissolved in 1% methylcellulose. Drugs were made up fresh each day 1-2 h before dosing and were administered using a dose volume in the range of 1-3 ml/kg. Drug doses were expressed as free base.
P<0.05 was considered to be statistically significant. Daily food and water intake data was analysed by ANOVA.

[10] = Body weight of diet-induced obese mice, chronic administration of Treatment E (Example 4)

T1 sequence (P21554 whole entry): as the sequence (P21554 whole entry) above

Compound: NCCC(Oc1ccc(C(F)(F)F)cc1)c1ccccc1 (racemic) [racemate of norfluoxetine, 3-(4-trifluoromethylphenoxy)-3-phenylpropylamine]
- functional activity versus the CB1 receptor [1]: antagonist

Compound: CNCC[C@@H](Oc1ccc(C(F)(F)F)cc1)c1ccccc1 [(R)-fluoxetine]
- functional activity versus the CB1 receptor [1]: antagonist

Compound: CNCC[C@H](Oc1ccc(C(F)(F)F)cc1)c1ccccc1 [(S)-Fluoxetine]
- functional activity versus the CB1 receptor [1]: inverse agonist

Compound: Fc1ccc(C(OCCCc2c[nH]cn2)c2ccc(F)cc2)cc1 [compound 7]
- inhibition of agonist (CP 55940) binding ([2]; mouse brain membrane, FIG. 7): inhibited
- inhibition of antagonist/inverse agonist (SR 141716) binding ([2]; mouse brain membrane, FIG. 7): inhibited
- inhibition of binding of [3H]CP 55,940 ([2]; mouse brain membranes, 0.75 nM radioligand, FIG. 6): almost fully inhibited
- inhibition of binding of [3H]CP 55,940 [3]: partially inhibited
- effect on the 2-AG dose response (Ca2+i) [4]: right shift
- effect on the 2-AG dose response (Ca2+i) [5]: No effect
- pA2 estimation using CP 55940 as an agonist ([6]; CB1 cell line, FIG. 4): did not support an allosteric effect
- [35S]GTPγS binding: antagonist versus inverse agonist activity ([6]; response dropped below basal levels, FIG. 5): inverse agonist activity
- effect on the dissociation rate of [3H]CP 55,940 [7]: no effect

Compound: Cc1c(C(=O)NN2CCCCC2)nn(-c2ccc(Cl)cc2Cl)c1-c1ccc(Cl)cc1 [rimonabant]
- 24 hour body weight change versus vehicle [8]: No significant differences
- body weight versus vehicle [8]: No significant differences
- daily food intake versus vehicle [8]: No significant differences
- reduction of body weight ([9]; 10 mg/kg po): 15%
- weight reduction as compared to vehicle on day 29 (Dunnett's test) ([9]; 10 mg/kg po, p<0.001, DIO mice): statistically significant weight reduction
- reduction in body weight ([10]; 10 mg/kg orally, chronic administration, DIO mice, FIG. 22): 15%
- weight reduction as compared to vehicle on day 29 (Dunnett's test) ([10]; dosed orally at 10 mg/kg, p<0.001): statistically significant weight reduction

Compound: CC(C)CC(N(C)C)C1(c2ccc(Cl)cc2)CCC1 (centres unmarked) [sibutramine]
- reduction of body weight ([9]; 20 mg/kg po): 2%
